From patent US11214594B2, “Antimicrobial peptide having synergistic antibacterial effect with antibiotics on multidrug resistant bacteria, and use thereof” (priority 2016, dated 2022)
Like-named read-outs stand apart in the source and are kept apart here. Where a SMILES comes first, the peptide text is derived from it. [ ]: non-standard residue; d: D form.

Columns and labels:
A. baumannii [1] = experiment: MIC of antibiotic during combined treatment with antimicrobial peptide; assay type: cell-based, Acinetobacter baumannii; conditions: A. baumannii
Description: Thereafter, the MIC value of each mixed solution was determined by diluting the antibiotic solution with the MH medium, adding 50 μl of the diluted solution to each well, and performing an experiment even under a reversed condition.

E. coli = assay type: cell-based, Escherichia coli; conditions: E. coli
Description: (§1) Specifically, the strains described in [Table 2] were prepared and diluted with an MH medium such that the number of bacteria was 2×10^6 colony-forming units (CFUs) per 1 ml, 100 μl of the diluted strains was each aliquoted into a 96-well microtiter plate, and then 50 μl of a peptide solution diluted with the MH medium from the MIC value (solution diluted stepwise at 2: 1) was added to each well. Thereafter, the MIC value of each mixed solution was determined by diluting the antibiotic solution with the MH medium, adding 50 μl of the diluted solution to each well, and performing an experiment even under a reversed condition.

MDREC 1229 = assay type: cell-based, Escherichia coli
Description: as §1

A. baumannii [2] = experiment: MIC of antimicrobial peptide during combined treatment with antibiotic; assay type: cell-based, Acinetobacter baumannii
Outline: (§2)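 Broth microdilution in MH medium; strains were diluted to 2×10^6 CFU per ml before plating. Peptide was serially diluted stepwise at 2:1 starting from its MIC, and MH-diluted antibiotic was then added to determine MIC. The reversed arrangement was also tested.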

MDRAB 12035 = experiment: as above; assay type: cell-based, Acinetobacter baumannii
Outline: as §2

[3] = combined with peptide at 2 μg/ml
[4] = combined with peptide at 4 μg/ml
[5] = combined with peptide at 6 μg/ml
[6] = combined with peptide at 8 μg/ml
[7] = combined with peptide at 16 μg/ml
[8] = combined with peptide at 32 μg/ml
[9] = combined with peptide at 64 μg/ml
[10] = linezolid 64 μg/ml (Conc./MIC 1/8)
[11] = linezolid 512 μg/ml (Conc./MIC 1)
[12] = vancomycin 512 μg/ml (Conc./MIC 1/2)
[13] = vancomycin 1024 μg/ml (Conc./MIC 1)
[14] = erythromycin 4 μg/ml (Conc./MIC 1/8)
[15] = erythromycin 8 μg/ml (Conc./MIC 1/4)
[16] = erythromycin 16 μg/ml (Conc./MIC 1/2)
[17] = erythromycin 32 μg/ml (Conc./MIC 1)

SMILES: CC[C@H](C)[C@H](NC(=O)[C@H](CCCCN)NC(=O)[C@H](Cc1c[nH]c2ccccc12)NC(=O)[C@@H](N)CCCNC(=N)N)C(=O)N[C@@H](Cc1ccccc1)C(=O)N[C@@H](CCCCN)C(=O)N[C@@H](CCCCN)C(=O)N[C@H](C(=O)N[C@H](CCCCN)C(=O)N[C@@H](CCCCN)C(=O)N[C@@H](CC(C)C)C(=O)N[C@@H](CC(C)C)C(=O)N[C@@H](Cc1c[nH]cn1)C(=O)N[C@@H](CCC(=O)O)C(=O)N[C@@H](Cc1ccccc1)C(=O)N[C@@H](CCCCN)C(=O)N[C@@H](CCCCN)C(=O)N[C@@H](Cc1ccccc1)C(N)=O)[C@@H](C)CC [PapMA-19, RWK IFK KIk KLL HEF KKF-NH2] (H-RWKIFKKI[dK]KLLHEFKKF-NH2; N-terminus assumed)
- Antibiotic MIC, Erythromycin (A. baumannii [1]; [3]): 16 µg/mL
- Antibiotic MIC, Linezolid (A. baumannii [1]; [3]): 64 µg/mL
- Antibiotic MIC, Vancomycin (A. baumannii [1]; [3]): 128 µg/mL
- Antibiotic MIC, Erythromycin (A. baumannii [1]; [4]): 4 µg/mL
- Antibiotic MIC, Linezolid (A. baumannii [1]; [4]): 16 µg/mL
- Antibiotic MIC, Vancomycin (A. baumannii [1]; [4]): 32 µg/mL
- Antibiotic MIC, Erythromycin (A. baumannii [1]; [5]): 2 µg/mL
- Antibiotic MIC, Linezolid (A. baumannii [1]; [5]): 8 µg/mL
- Antibiotic MIC, Vancomycin (A. baumannii [1]; [5]): 8 µg/mL
- Antibiotic MIC, Erythromycin (A. baumannii [1]; [6]): 0.25 µg/mL
- Antibiotic MIC, Linezolid (A. baumannii [1]; [6]): 4 µg/mL
- Antibiotic MIC, Vancomycin (A. baumannii [1]; [6]): 4 µg/mL
- Antibiotic MIC, Erythromycin (A. baumannii [1]; [7]): 0 µg/mL
- Antibiotic MIC, Linezolid (A. baumannii [1]; [7]): 0 µg/mL
- Antibiotic MIC, Vancomycin (A. baumannii [1]; [7]): 0 µg/mL
- Antibiotic MIC, Erythromycin (A. baumannii [1]; [8]): 0 µg/mL
- Antibiotic MIC, Linezolid (A. baumannii [1]; [8]): 0 µg/mL
- Antibiotic MIC, Vancomycin (A. baumannii [1]; [8]): 0 µg/mL
- Antibiotic MIC, Erythromycin (A. baumannii [1]; [9]): 0 µg/mL
- Antibiotic MIC, Linezolid (A. baumannii [1]; [9]): 0 µg/mL
- Antibiotic MIC, Vancomycin (A. baumannii [1]; [9]): 0 µg/mL
- Peptide MIC (E. coli; with Erythromycin […] (Conc./MIC 1)): 0 µg/mL
- Peptide MIC (E. coli; with Linezolid […] (Conc./MIC 1)): 0 µg/mL
- Peptide MIC (E. coli; with Vancomycin 1024 μg/ml (Conc./MIC 1)): 0 µg/mL
- Peptide MIC during treatment with antibiotic (MDREC 1229; erythromycin 32 μg/ml (Conc./MIC 1/8)): 2 µg/mL
- Peptide MIC during treatment with antibiotic (MDREC 1229; erythromycin 64 μg/ml (Conc./MIC 1/4)): 2 µg/mL
- Peptide MIC during treatment with antibiotic (MDREC 1229; erythromycin […] (Conc./MIC 1)): 0 µg/mL
- Peptide MIC during treatment with antibiotic (MDREC 1229; erythromycin […] (Conc./MIC 1/2)): 1 µg/mL
- Peptide MIC during treatment with antibiotic (MDREC 1229; [10]): 4 µg/mL
- Peptide MIC during treatment with antibiotic (MDREC 1229; [11]): 0 µg/mL
- Peptide MIC during treatment with antibiotic (MDREC 1229; linezolid […] (Conc./MIC 1/2)): 1 µg/mL
- Peptide MIC during treatment with antibiotic (MDREC 1229; linezolid […] (Conc./MIC 1/4)): 2 µg/mL
- Peptide MIC during treatment with antibiotic (MDREC 1229; [12]): 2 µg/mL
- Peptide MIC during treatment with antibiotic (MDREC 1229; [13]): 1 µg/mL
- Peptide MIC during treatment with antibiotic (MDREC 1229; vancomycin […] (Conc./MIC 1/4)): 4 µg/mL
- Peptide MIC during treatment with antibiotic (MDREC 1229; vancomycin […] (Conc./MIC 1/8)): 4 µg/mL
- Peptide MIC during treatment with antibiotic (A. baumannii [2]; [14]): 4 µg/mL
- Peptide MIC during treatment with antibiotic (A. baumannii [2]; [15]): 4 µg/mL
- Peptide MIC during treatment with antibiotic (A. baumannii [2]; [16]): 2 µg/mL
- Peptide MIC during treatment with antibiotic (A. baumannii [2]; [17]): 0 µg/mL
- Peptide MIC during treatment with antibiotic (A. baumannii [2]; linezolid 32 μg/ml (Conc./MIC 1/8)): 4 µg/mL
- Peptide MIC during treatment with antibiotic (A. baumannii [2]; linezolid 64 μg/ml (Conc./MIC 1/4)): 2 µg/mL
- Peptide MIC during treatment with antibiotic (A. baumannii [2]; linezolid […] (Conc./MIC 1)): 0 µg/mL
- Peptide MIC during treatment with antibiotic (A. baumannii [2]; linezolid […] (Conc./MIC 1/2)): 1 µg/mL
- Peptide MIC during treatment with antibiotic (A. baumannii [2]; [12]): 0.25 µg/mL
- Peptide MIC during treatment with antibiotic (A. baumannii [2]; [13]): 0 µg/mL
- Peptide MIC during treatment with antibiotic (A. baumannii [2]; vancomycin […] (Conc./MIC 1/4)): 0.5 µg/mL
- Peptide MIC during treatment with antibiotic (A. baumannii [2]; vancomycin […] (Conc./MIC 1/8)): 2 µg/mL
- Peptide MIC during treatment with erythromycin (MDRAB 12035; [14]): 4 µg/mL
- Peptide MIC during treatment with erythromycin (MDRAB 12035; [15]): 4 µg/mL
- Peptide MIC during treatment with erythromycin (MDRAB 12035; [16]): 2 µg/mL
- Peptide MIC during treatment with erythromycin (MDRAB 12035; [17]): 0 µg/mL
- Peptide MIC during treatment with linezolid (MDRAB 12035; [10]): 4 µg/mL
- Peptide MIC during treatment with linezolid (MDRAB 12035; [11]): 0 µg/mL
- Peptide MIC during treatment with linezolid (MDRAB 12035; linezolid […] (Conc./MIC 1/2)): 1 µg/mL
- Peptide MIC during treatment with linezolid (MDRAB 12035; linezolid […] (Conc./MIC 1/4)): 2 µg/mL
- Peptide MIC during treatment with vancomycin (MDRAB 12035; [12]): 2 µg/mL
- Peptide MIC during treatment with vancomycin (MDRAB 12035; [13]): 1 µg/mL
- Peptide MIC during treatment with vancomycin (MDRAB 12035; vancomycin […] (Conc./MIC 1/4)): 2 µg/mL
- Peptide MIC during treatment with vancomycin (MDRAB 12035; vancomycin […] (Conc./MIC 1/8)): 2 µg/mL
